Biological target: T1, IRAK4 (Homo sapiens, UniProt Q9NWZ3)
T1 sequence (Q9NWZ3 1-460): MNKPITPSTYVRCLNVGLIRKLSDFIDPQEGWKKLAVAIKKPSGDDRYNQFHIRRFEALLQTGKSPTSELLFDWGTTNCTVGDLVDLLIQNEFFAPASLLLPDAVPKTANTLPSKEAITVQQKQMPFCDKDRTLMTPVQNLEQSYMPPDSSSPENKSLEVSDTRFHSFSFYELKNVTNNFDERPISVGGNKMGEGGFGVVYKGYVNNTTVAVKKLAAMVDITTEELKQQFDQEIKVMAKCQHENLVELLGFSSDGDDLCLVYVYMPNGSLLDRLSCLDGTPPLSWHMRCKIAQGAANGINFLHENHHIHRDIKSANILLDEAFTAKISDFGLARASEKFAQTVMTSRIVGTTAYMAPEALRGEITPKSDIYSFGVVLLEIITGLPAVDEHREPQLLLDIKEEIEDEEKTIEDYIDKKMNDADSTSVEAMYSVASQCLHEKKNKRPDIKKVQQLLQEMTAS
Experiment: IRAK-4 activity inhibition assay (Caliper)
Type: biochemical
Details: 37 μM ATP, 3.5 nM IRAK4

IC50	SMILES
< 5 µM	CN(C)[C@H]1CC[C@H](Nc2ncnc3sc4c(c23)C(CCO)CC4)CC1 (stereo partly drawn) [Compound I-12, 2-(4-(((1r,4r)-4-(dimethylamino)cyclohexyl)amino)-6,7-dihydro-5H-cyclopenta[4,5]thieno[2,3-d]pyrimidin-5-yl)ethanol]
< 5 µM	CN(C)[C@H]1CC[C@H](Oc2ncnc3sc4c(c23)[C@H](CO)CC4)CC1 [Compound I-20, ((S)-4-(((1r,4S)-4-(dimethylamino)cyclohexyl)oxy)-6,7-dihydro-5H-cyclopenta[4,5]thieno[2,3-d]pyrimidin-5-yl)methanol]
< 5 µM	CC[S@+]([O-])C[C@H]1CCc2sc3ncnc(O[C@H]4CC[C@H](N(C)C)CC4)c3c21 (single isomer, unassigned) [Compound I-45]
< 5 µM	CCN[C@H]1CC[C@H](Oc2ncnc3sc4c(c23)[C@@H](C[C@@H](O)C(N)=O)CC4)CC1 [Compound I-139, (2R)-3-[(3R)-12-[[4-(ethylamino)cyclohexyl]oxy]-7-thia-9,11-diazatricyclo[6.4.0.0[2,6]]dodeca-1(8),2(6),9,11-tetraen-3-yl]-2-hydroxypropanamide]
< 5 µM	CCS(=O)(=O)CC1CCc2sc3ncnc(O[C@H]4CC[C@H](N(C)C)CC4)c3c21 (stereo partly drawn) [Compound I-47, 4-([3-[(ethanesulfonyl)methyl]-7-thia-9,11-diazatricyclo[6.4.0.0[2,6]]dodeca-1(12),2(6),8,10-tetraen-12-yl]oxy)-N,N-dimethylcyclohexan-1-amine]
< 5 µM	COCCN(C)[C@H]1CC[C@H](Oc2ncnc3sc4c(c23)[C@@H](CC(N)=O)CC4)CC1 [Compound I-130, 2-((R)-4-(((1r,4R)-4-((2-methoxyethyl)(methyl)amino)cyclohexyl)oxy)-6,7-dihydro-5H-cyclopenta[4,5]thieno[2,3-d]pyrimidin-5-yl)acetamide]
< 5 µM	CC[C@]1(N(C)C)CC[C@H](Oc2ncnc3sc4c(c23)[C@@H](C[C@@H](C)O)CC4)CC1 [Compound I-102, (2R)-1-[(3R)-12-[[4-(dimethylamino)-4-ethylcyclohexyl]oxy]-7-thia-9,11-diazatricyclo[6.4.0.0[2,6]]dodeca-1(12),2(6),8,10-tetraen-3-yl]propan-2-ol]
< 5 µM	CCSCC1CCc2sc3ncnc(O[C@H]4CC[C@H](N(C)C)CC4)c3c21 (stereo partly drawn) [Compound I-39, 4-([3-[(ethylsulfanyl)methyl]-7-thia-9,11-diazatricyclo[6.4.0.0[2,6]]dodeca-1(12),2(6),8,10-tetraen-12-yl]oxy)-N,N-dimethylcyclohexan-1-amine]
< 5 µM	NC(=O)CC[C@H]1CCCc2sc3ncnc(O[C@H]4CC[C@H](N)CC4)c3c21 [Compound I-153, 3-((R)-4-(((1r,4R)-4-aminocyclohexyl)oxy)-5,6,7,8-tetrahydrobenzo[4,5]thieno[2,3-d]pyrimidin-5-yl)propanamide]
> 50 µM	CN(CCO)C(=O)C1CCc2sc3ncnc(N[C@H]4CC[C@H](N(C)C)CC4)c3c21 (stereo partly drawn) [Compound I-29, 12-[[4-(dimethylamino)cyclohexyl]amino]-N-(2-hydroxyethyl)-N-methyl-7-thia-9,11-diazatricyclo[6.4.0.0̂[2,6]]dodeca-1(12),2(6),8,10-tetraene-3-carboxamide]
< 5 µM	NC(=O)CC[C@H]1CCc2sc3ncnc(O[C@H]4CC[C@H](N5CCOCC5)CC4)c3c21 [Compound I-84, 3-((S)-4-(((1r,4S)-4-morpholinocyclohexyl)oxy)-6,7-dihydro-5H-cyclopenta[4,5]thieno[2,3-d]pyrimidin-5-yl)propanamide]
5 to 20 µM	CC(=O)N1CCc2sc3ncnc(N[C@H]4CC[C@H](N5CCOCC5)CC4)c3c2C1 [Compound I-172, 1-(3-[[4-(morpholin-4-yl)cyclohexyl]amino]-8-thia-4,6,12-triazatricyclo[7.4.0.0-[2,7]]trideca-1(9),2(7),3,5-tetraen-12-yl)ethan-1-one]
< 5 µM	COCCN[C@H]1CC[C@H](Oc2ncnc3sc4c(c23)[C@@H](CC(N)=O)CC4)CC1 [Compound I-133, 2-[(3R)-12-([4-[(2-methoxyethyl)amino]cyclohexyl]oxy)-7-thia-9,11-diazatricyclo[6.4.0.0[2,6]]dodeca-1(12),2(6),8,10-tetraen-3-yl]acetamide]
< 5 µM	CN(C)[C@H]1CC[C@H](Nc2ncnc3sc4c(c23)C(CC(N)=O)CC4)CC1 (stereo partly drawn) [Compound I-13, 2-(4-(((1r,4r)-4-(dimethylamino)cyclohexyl)amino)-6,7-dihydro-5H-cyclopenta[4,5]thieno[2,3-d]pyrimidin-5-yl)acetamide]
< 5 µM	CS(=O)(=O)N1CCc2sc3ncnc(O[C@H]4CC[C@H](N5CCOCC5)CC4)c3c2C1 [Compound I-187, 12-methanesulfonyl-3-[[4-(morpholin-4-yl)cyclohexyl]oxy]-8-thia-4,6, 12-triazatricyclo[7.4.0.0[2,7]]trideca-1(9),2(7),3,5-tetraene]
< 5 µM	CN(C)[C@H]1CC[C@H](Nc2ncnc3sc4c(c23)C(C(=O)NCCO)CC4)CC1 (stereo partly drawn) [Compound I-17, 12-[[4-(dimethylamino)cyclohexyl]amino]-N-(2-hydroxyethyl)-7-thia-9,11-diazatricyclo[6.4.0.0̂[2,6]]dodeca-1(12),2(6),8,10-tetraene-3-carboxamide]
< 5 µM	CN(C)[C@]1(C)CC[C@@H](Oc2ncnc3sc4c(c23)[C@@H](CC(N)=O)CC4)CC1 [Compound I-155, 2-[(3R)-12-[[4-(dimethylamino)-4-methylcyclohexyl]oxy]-7-thia-9,11-diazatricyclo[6.4.0.0[2,6]]dodeca-1(8),2(6),9,11-tetraen-3-yl]acetamide]
< 5 µM	NC(=O)C[C@H]1CCc2sc3ncnc(O[C@H]4CC[C@H](N5CC6(COC6)C5)CC4)c3c21 [Compound I-152, 2-[(3R)-12-[(4-[2-oxa-6-azaspiro[3.3]heptan-6-yl]cyclohexyl)oxy]-7-thia-9,11-diazatricyclo[6.4.0.0[2,6]]dodeca-1(8),2(6),9,11-tetraen-3-yl]acetamide]
20 to 50 µM	CCOC(=O)C1CCc2sc3ncnc(O[C@H]4CC[C@H](N(C)C)CC4)c3c21 (stereo partly drawn) [Compound I-4]
< 5 µM	NC(=O)C[C@H]1CCc2sc3ncnc(N[C@H]4CC[C@H](N5CCOCC5)CC4)c3c21 [Compound I-97, 2-[(3R)-12-[[4-(morpholin-4-yl)cyclohexyl]amino]-7-thia-9,11-diazatricyclo[6.4.0.0̂[2,6]]dodeca-1(12),2(6),8,10-tetraen-3-yl]acetamide]
< 5 µM	CN[C@H]1CC[C@H](Oc2ncnc3sc4c(c23)[C@@H](CCC(N)=O)CCC4)CC1 [Compound I-162, 3-((R)-4-(((1r,4R)-4-(methylamino)cyclohexyl)oxy)-5,6,7,8-tetrahydrobenzo[4,5]thieno[2,3-d]pyrimidin-5-yl)propanamide]
< 5 µM	CN(C)[C@H]1CC[C@H](Nc2ncnc3sc4c(c23)C(CC#N)CC4)CC1 (stereo partly drawn) [Compound I-9]
< 5 µM	C=C[C@@H](O)C[C@H]1CCc2sc3ncnc(O[C@H]4CC[C@@](N)(CC)CC4)c3c21 [Compound I-126, (2S)-1-[(3R)-12-[(4-amino-4-ethylcyclohexyl)oxy]-7-thia-9,11-diazatricyclo[6.4.0.0[2,6]]dodeca-1(8),2(6),9,11-tetraen-3-yl]but-3-en-2-ol]
> 50 µM	CN(C)[C@H]1CC[C@H](Oc2ncnc3sc4c(c23)C(C(=O)O)CC4)CC1 (stereo partly drawn) [Compound I-8, 4-(((1r,4r)-4-(dimethylamino)cyclohexyl)oxy)-6,7-dihydro-5H-cyclopenta[4,5]thieno[2,3-d]pyrimidine-5-carboxylic acid]
< 5 µM	NC(=O)[C@H]1CCc2sc3ncnc(O[C@H]4CC[C@H](N5CCC(F)(F)CC5)CC4)c3c2C1 [Compound I-236, (12S)-3-[[4-(4,4-difluoropiperidin-1-yl)cyclohexyl]oxy]-8-thia-4,6-diazatricyclo[7.4.0.0[2,7]]trideca-1(9),2(7),3,5-tetraene-12-carboxamide]
< 5 µM	CC[S@@+]([O-])C[C@H]1CCc2sc3ncnc(O[C@H]4CC[C@H](N(C)C)CC4)c3c21 (single isomer, unassigned) [Compound I-46]
< 5 µM	CN[C@H]1CC[C@H](Oc2ncnc3sc4c(c23)[C@@H](C[C@@H](O)C(N)=O)CC4)CC1 [Compound I-140, (2R)-2-hydroxy-3-[(3R)-12-[[4-(methylamino)cyclohexyl]oxy]-7-thia-9,11-diazatricyclo[6.4.0.0[2,6]]dodeca-1(8),2(6),9,11-tetraen-3-yl]propanamide]
5 to 20 µM	CC[C@H](O)C[C@H]1CCc2sc3ncnc(O[C@H]4CC[C@](CC)(N(C)C)CC4)c3c21 [Compound I-104, (2S)-1-[(3R)-12-[[4-(dimethylamino)-4-ethylcyclohexyl]oxy]-7-thia-9,11-diazatricyclo[6.4.0.0[2,6]]dodeca-1(8),2(6),9,11-tetraen-3-yl]butan-2-ol]
20 to 50 µM	CN(C)[C@H]1CC[C@H](Nc2ncnc3sc4c(c23)C(C(=O)NCc2cccnc2)CC4)CC1 (stereo partly drawn) [Compound I-25, 12-[[4-(dimethylamino)cyclohexyl]amino]-N-(pyridin-3-ylmethyl)-7-thia-9,11-diazatricyclo[6.4.0.0̂[2,6]]dodeca-1(12),2(6),8,10-tetraene-3-carboxamide]
< 5 µM	CN[C@]1(C)CC[C@@H](Oc2ncnc3sc4c(c23)[C@@H](CC(N)=O)CC4)CC1 [Compound I-156, 2-[(3R)-12-[[4-methyl-4-(methylamino)cyclohexyl]oxy]-7-thia-9,11-diazatricyclo[6.4.0.0[2,6]]dodeca-1(8),2(6),9,11-tetraen-3-yl]acetamide]

Source: patent US20160193216A1 (Nimbus Iris, Inc., priority 2012, published 2016)
